US20240246905A1 (University of Leicester, priority 2021, published 2024)

Columns and labels:
[1] = test system: MRSA 252; assay: MIC, broth micro-dilution; type: cell-based, Staphylococcus aureus
In short: (§1)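 S. aureus cultures grown 18 h in TSB were used to inoculate twofold antibiotic series in TSB at 5×10^5 CFU/mL, per CLSI guidelines. Growth curves read by optical density at 12-min intervals for 18 h at 37 °C were fitted sigmoidally to calculate MIC.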

[2] = test system: MSSA 476; assay: MIC, broth micro-dilution; type: cell-based, Staphylococcus aureus
In short: as §1

[3] = test system: various Staphylococcus aureus strains; assay: Disc diffusion, Staphylococcus aureus strain study; type: cell-based; settings: 500 μg/mL
In short: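 Kirby-Bauer disc diffusion on Mueller-Hinton agar spread with 1:200 dilution of overnight S. aureus cultures (TSB, 37 °C). Discs loaded with 50 μL of compound at 500 μg/mL; zone of inhibition recorded after 24 h at 37 °C.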

[4] = test system: MRSA 252; assay: Disc diffusion (Kirby-Bauer), zone of inhibition; type: cell-based, Staphylococcus aureus; settings: 500 μg/mL, '/' = no zone
In short: (§2)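 Zones of inhibition recorded after 24 h at 37 °C on Mueller-Hinton agar. Agar was inoculated with 1 in 200 diluted 18 h broth cultures, and discs carried 50 μL of antibiotic. Method follows CLSI 2017 disc diffusion.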

[5] = test system: MSSA 476; assay: Disc diffusion (Kirby-Bauer), zone of inhibition; type: cell-based, Staphylococcus aureus; settings: 500 μg/mL, '/' = no zone
In short: as §2

[6] = test system: HEK293 cells; assay: Cytotoxicity assay, resazurin (CO-ADD)
In short: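 HEK293 cells in DMEM with 10% FBS were exposed to compounds at a single concentration of 32 μg/mL for 20 h at 37° C, 5% CO2. Viability read by resazurin fluorescence (2.3 μg/mL final, 3 h; F560/590). CC50 from sigmoidal dose-response fitting.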

[7] = test system: Staphylococcus aureus 15981; assay: Disc diffusion (Kirby-Bauer), zone of inhibition; type: cell-based; settings: Staphylococcus aureus 15981; 500 μg/mL; '/' = no zone
In short: as §2

[8] = test system: Escherichia coli DH5α; assay: Disc diffusion (Kirby-Bauer), zone of inhibition; type: cell-based; settings: Escherichia coli DH5α; 500 μg/mL; '/' = no zone
In short: as §2

[9] = test system: red blood cells; assay: Hemolysis assay (CO-ADD); type: cell-based; settings: 32 μg/mL highest concentration tested
From the text: A problem often encountered by emerging drugs is hemolysis, also known as drug-induced immune hemolytic anemia.

(2-Isocyanovinyl)-4-acetaamido benzene [Compound 22]
16 mm: Zone of inhibition ([3]; strain EOE 54) | Zone of inhibition ([3]; strain S139_7_7) | Zone of inhibition ([3]; strain USFL 012) | Zone of inhibition ([3]; strain USFL 020) | Zone of inhibition ([3]; strain USFL 021) | Zone of inhibition ([3]; strain USFL 035) | Zone of inhibition [5]
55 µg/mL: MIC [1]
>32 µg/mL: Hemolytic activity (HC10) [9]
20 mm: Zone of inhibition ([3]; strain ASARM 71) | Zone of inhibition ([3]; strain ASARM 73) | Zone of inhibition ([3]; strain EOE 3) | Zone of inhibition ([3]; strain EOE 30) | Zone of inhibition ([3]; strain EOE 41) | Zone of inhibition ([3]; strain MRSA 252) | Zone of inhibition ([3]; strain S295_1_1) | Zone of inhibition ([3]; strain S295_1_2) | Zone of inhibition ([3]; strain S295_1_3) | Zone of inhibition ([3]; strain S364_5_12) | Zone of inhibition ([3]; strain Sa_TPS 3026) | Zone of inhibition ([3]; strain Sa_TPS 3104) | Zone of inhibition [4] | Zone of inhibition [8]
172 µg/mL: MIC [2]
no toxicity: toxicity towards the HEK293 cell line (in words) ([6]; set concentration of 32 μg/mL)
24 mm: Zone of inhibition ([3]; strain ASARM 77) | Zone of inhibition ([3]; strain S197_1_8) | Zone of inhibition ([3]; strain Sa_TPS 3092) | Zone of inhibition ([3]; strain Sa_TPS 3097)
15 mm: Zone of inhibition ([3]; strain USFL 028)
19 mm: Zone of inhibition ([3]; strain USFL 054)
26 mm: Zone of inhibition ([3]; strain ASARM 76) | Zone of inhibition ([3]; strain ASARM 80) | Zone of inhibition ([3]; strain EOE 45) | Zone of inhibition ([3]; strain S197_1_9) | Zone of inhibition ([3]; strain Sa_TPS 3106)
14 mm: Zone of inhibition ([3]; strain USFL 008) | Zone of inhibition ([3]; strain USFL 009)
18 mm: Zone of inhibition ([3]; strain ASARM 61) | Zone of inhibition ([3]; strain ASARM 70) | Zone of inhibition ([3]; strain EOE 35) | Zone of inhibition ([3]; strain EOE 57) | Zone of inhibition ([3]; strain Sa_TPS 3118) | Zone of inhibition ([3]; strain Sa_TPS 3133) | Zone of inhibition ([3]; strain Sa_TPS 3134) | Zone of inhibition ([3]; strain USFL 016) | Zone of inhibition ([3]; strain USFL 018) | Zone of inhibition ([3]; strain not given) | Zone of inhibition [7]
>32000 ng/mL: Concentration toxic to HEK 293 cells ([6]; HEK 293)
22 mm: Zone of inhibition ([3]; strain ASARM 72) | Zone of inhibition ([3]; strain ASARM 75) | Zone of inhibition ([3]; strain ASARM 79) | Zone of inhibition ([3]; strain EOE 23) | Zone of inhibition ([3]; strain EOE 42) | Zone of inhibition ([3]; strain EOE 52) | Zone of inhibition ([3]; strain S197_1_1) | Zone of inhibition ([3]; strain S197_1_10) | Zone of inhibition ([3]; strain S364_5_11) | Zone of inhibition ([3]; strain Sa_TPS 3072) | Zone of inhibition ([3]; strain Sa_TPS 3103)
